# Several values for one entry are separate records, joined by “and”; a condition that tells them apart may be missing. Equal entries are not always repeated.
# Experiments:
# 5-HT7AR [1] = biological target: T1, 5-HT7AR (Homo sapiens, UniProt P34969); test: HEK-5HT7A/cAMP; format: cell-based
# 5-HT7AR [2] = biological target: T1, 5-HT7AR; test: HEK-5HT7A/cAMP; format: cell-based; remark: listed apart in the source
# [3] = biological target: T2, 5-HT1AR (HEK-h5HT1A membranes) (Homo sapiens, UniProt P08908); test: HEK-5HT1A [35S]GTPγS binding functional assay; format: biochemical; settings: for 5-HT1AR [35S]GTPγS assay % max ± SEM: maximal effect normalized to maximal effect of serotonin; for functional character at 5-HT1AR ([35S]GTPγS assay): result in words
# T2 sequence (P08908 1-422): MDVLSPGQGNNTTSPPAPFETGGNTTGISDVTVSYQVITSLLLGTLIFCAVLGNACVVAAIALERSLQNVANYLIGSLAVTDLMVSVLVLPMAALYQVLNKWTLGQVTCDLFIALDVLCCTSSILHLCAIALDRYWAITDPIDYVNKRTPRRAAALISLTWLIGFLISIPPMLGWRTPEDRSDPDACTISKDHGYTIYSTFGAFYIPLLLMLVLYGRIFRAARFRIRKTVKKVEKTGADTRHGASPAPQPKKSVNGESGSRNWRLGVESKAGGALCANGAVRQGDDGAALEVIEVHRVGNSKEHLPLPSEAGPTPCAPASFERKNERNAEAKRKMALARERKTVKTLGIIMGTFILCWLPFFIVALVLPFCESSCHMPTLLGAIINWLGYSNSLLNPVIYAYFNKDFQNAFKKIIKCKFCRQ
# h5HT7A receptor = h5HT7A receptor (Homo sapiens, UniProt P34969); test: [3H]5-HT binding at 5HT7A receptors; settings: HEK cells transiently transfected with h5HT7A
# human 5HT1A receptor = biological target: T3, human 5HT1A receptor (Homo sapiens, UniProt P08908); test: [3H]8-OH-DPAT binding at the 5-HT1A receptor; settings: HEK-h5HT1A membranes
# T3 sequence (P08908 1-422): T2 sequence (P08908 1-422)
# T1 sequence (P34969 1-445 isoform P34969-2): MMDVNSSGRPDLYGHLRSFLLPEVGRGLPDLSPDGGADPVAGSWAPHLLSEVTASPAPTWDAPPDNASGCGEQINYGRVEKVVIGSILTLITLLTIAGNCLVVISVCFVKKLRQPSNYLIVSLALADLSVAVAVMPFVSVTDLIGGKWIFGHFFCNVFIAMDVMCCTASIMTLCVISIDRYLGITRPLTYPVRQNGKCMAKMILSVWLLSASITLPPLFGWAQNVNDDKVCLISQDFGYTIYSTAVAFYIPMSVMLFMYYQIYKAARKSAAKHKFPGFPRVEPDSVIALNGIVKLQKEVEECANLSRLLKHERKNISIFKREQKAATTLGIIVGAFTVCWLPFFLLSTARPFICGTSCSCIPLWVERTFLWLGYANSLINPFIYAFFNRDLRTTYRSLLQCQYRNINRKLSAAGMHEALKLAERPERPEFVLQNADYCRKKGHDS
# Sequence of h5HT7A receptor (P34969 1-445 isoform P34969-2): as above
agonist activity at 5-HT7AR (5-HT7AR [1]; result in words),5-HT7AR adenylate cyclase % max inhib. ± SEM (5-HT7AR [2]; maximal inhibition of cAMP formation defined with 10 μM lurasidone),5-HT7AR [3H]5-HT binding hill slope ± SEM (h5HT7A receptor),inhibition (5-HT7AR [2]; read-out: 5-HT7AR adenylate cyclase % max inhib. ± SEM),Compound,5-HT1AR [35S]GTPγS assay % max ± SEM [3],functional character at 5-HT1AR ([35S]GTPγS assay) [3],5-HT1AR [3H]8-OH-DPAT binding hill slope ± SEM (human 5HT1A receptor),"5-HT7AR adenylate cyclase % max ± SEM (5-HT7AR [1]; agonist effect, normalized to maximal serotonin effect)",5-HT1AR [35S]GTPγS assay % max ± SEM ([3]; listed as serotonin (5-HT))
do not show any agonist activity,94.7 ± 4.1%,–0.59 ± 0.03,–,"CC1(CCCN2CCN(c3ccccn3)CC2)Cc2cc(Cl)ccc2C1=O (racemic) [SYA0340, 5-chloro-2-methyl-2-(3-(4-(pyridin-2-yl)piperazin-1-yl)propyl)-2,3-dihydro-1H-inden-1-one]",101.5% and 101.5 ± 2.8%,full agonist,–0.66 ± 0.09,–,–
–,–,–0.76 ± 0.11,98 ± 2%,O=C1[C@@H]2[C@H]3CC[C@H](C3)[C@@H]2C(=O)N1C[C@@H]1CCCC[C@H]1CN1CCN(c2nsc3ccccc23)CC1 [lurasidone],–,–,–,–,–

Compound,agonist activity at 5-HT7AR (5-HT7AR [1]; result in words),5-HT7AR adenylate cyclase % max inhib. ± SEM (5-HT7AR [2]; maximal inhibition of cAMP formation defined with 10 μM lurasidone),5-HT7AR [3H]5-HT binding hill slope ± SEM (h5HT7A receptor),inhibition (5-HT7AR [2]; read-out: 5-HT7AR adenylate cyclase % max inhib. ± SEM),5-HT1AR [35S]GTPγS assay % max ± SEM [3],functional character at 5-HT1AR ([35S]GTPγS assay) [3],5-HT1AR [3H]8-OH-DPAT binding hill slope ± SEM (human 5HT1A receptor),"5-HT7AR adenylate cyclase % max ± SEM (5-HT7AR [1]; agonist effect, normalized to maximal serotonin effect)",5-HT1AR [35S]GTPγS assay % max ± SEM ([3]; listed as serotonin (5-HT))
"NCCc1c[nH]c2ccc(O)cc12 [5-HT, serotonin]",–,–,–1.07 ± 0.09,–,101.2 ± 1.1%,full agonist,–0.96 ± 0.06,95.8% and 95.8 ± 1.6%,101.2%
